Data on three compounds can be found in patent US5484786A, “Pyran-4-ylmethyl substituted arylalkylaryl-, arylalkenylylaryl-, and arylalkynylarylurea inhibitors of 5-lipoxygenase” (Abbott Laboratories, priority 1993, dated 1996).

The assay deals with T1, 5-Lipoxygenase (Homo sapiens, UniProt P09917).
T1 construct: Human heparinized whole blood was preincubated with test compounds; from tissue; host or cells: human heparinized whole blood
T1 sequence (P09917 1-674): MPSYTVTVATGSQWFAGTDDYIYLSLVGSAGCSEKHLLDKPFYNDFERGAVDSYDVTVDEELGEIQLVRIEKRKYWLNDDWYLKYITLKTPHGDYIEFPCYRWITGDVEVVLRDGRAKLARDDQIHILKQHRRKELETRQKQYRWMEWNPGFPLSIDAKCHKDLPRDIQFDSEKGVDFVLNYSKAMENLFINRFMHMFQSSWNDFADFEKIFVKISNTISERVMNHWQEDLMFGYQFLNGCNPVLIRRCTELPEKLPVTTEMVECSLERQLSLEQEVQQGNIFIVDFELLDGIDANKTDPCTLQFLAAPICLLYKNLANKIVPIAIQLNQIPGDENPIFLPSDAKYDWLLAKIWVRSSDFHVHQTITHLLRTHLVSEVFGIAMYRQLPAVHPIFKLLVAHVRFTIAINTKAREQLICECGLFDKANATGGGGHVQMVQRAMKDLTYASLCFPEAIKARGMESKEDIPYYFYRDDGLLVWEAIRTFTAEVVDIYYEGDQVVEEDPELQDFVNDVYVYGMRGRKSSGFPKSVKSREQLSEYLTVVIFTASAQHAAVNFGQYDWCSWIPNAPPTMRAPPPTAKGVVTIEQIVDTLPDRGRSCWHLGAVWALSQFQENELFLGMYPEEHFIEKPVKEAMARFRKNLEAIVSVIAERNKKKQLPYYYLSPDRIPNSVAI
The assay can be described thus: Inhibition of calcium ionophore A23187-induced LTB4 biosynthesis in human whole blood. The class given is cell-based. The conditions noted are these: human heparinized whole blood, 15 min preincubation 37° C., A23187 8.3 μM, 30 min. The procedure:
Inhibition of leukotriene biosynthesis was evaluated in an assay, involving calcium ionophore-induced LTB4 biosynthesis expressed human whole blood. Human heparinized whole blood was preincubated with test compounds or vehicle for 15 min 37° C. followed by calcium ionophore A23187 challenge (final concentration of 8.3 μM) and the reaction terminated after 30 min by adding two volumes of methanol containing prostaglandin B2 as an internal recovery standard. The methanol extract was analyzed for LTB4 using a commercially available radioimmunoassay.

As for `CON=C(c1cc(F)cc(OCc2ccc(N(C)C(C)=O)cc2)c1)C1CCOCC1` [Example 1, E- and Z-O-Methyl-4-[(3-(4-(N-acetyl-N-methylamino)benzyloxy)-5-fluoro-phenyl)oximinomethyl]tetrahydropyran], where the note is “@ 1.56 μM”, the “In vitro inhibitory potency against 5-lipoxygenase from stimulated LTB4 formation in human whole blood (percent inhibition)” value is reported as 100%.

As to `CON=C(c1cc(F)cc(OCc2cccc(N(C)C(=O)N(C)C)c2)c1)C1CCOCC1` [Example 43, E- and Z-O-Methyl-4-[(3-(3-(N',N'-dimethylaminocarbonyl-N-methylamino)-benzyloxy)-5-fluoro-phenyl)oximinomethyl]tetrahydropyran], for the setting “@ 3.13 μM”, the “In vitro inhibitory potency against 5-lipoxygenase from stimulated LTB4 formation in human whole blood (percent inhibition)” value was found to be 12%.

Regarding `CON=C(c1cc(F)cc(OCc2ccc(N(C)C(=O)N(C)C)cc2)c1)C1CCOCC1` [Example 5, E- and Z-O-Methyl-4-[(3-(4-N',N'-dimethylaminocarbonyl-N-methylamino)benzyloxy)-5-fluoro-phenyl)oximinomethyl]tetrahydropyran], under “@ 0.78 μM”, the “In vitro inhibitory potency against 5-lipoxygenase from stimulated LTB4 formation in human whole blood (percent inhibition)” value is recorded as 100%.
